{
  "source": "paper PMC5218480",
  "about": "(PLoS ONE, 2017)",
  "test_system": "MV-4-11 cells",
  "test": "Gene expression microarray analysis (Affymetrix PrimeView) and GSEA",
  "assay_type": "cell-based, human",
  "design": "RFU PODN (11730768_x_at) / Fold change /veh PODN (11730768_x_at) / RFU LINC00158 (11744669_a_at) / Fold change /veh LINC00158 (11744669_a_at) / RFU DUSP10 (11751237_a_at) / Fold change /veh DUSP10 (11751237_a_at) / RFU ID3 (11757404_x_at) / Fold change /veh ID3 (11757404_x_at) / RFU PLEKHG5 (11737974_s_at) / Fold change /veh PLEKHG5 (11737974_s_at) / RFU LRRC4B (11730491_at) / Fold change /veh LRRC4B (11730491_at) / RFU GIMAP4 (11747438_a_at) / Fold change /veh GIMAP4 (11747438_a_at) / RFU KRT8 (11758183_x_at) / Fold change /veh KRT8 (11758183_x_at) / RFU CNN1 (11734310_a_at) / Fold change /veh CNN1 (11734310_a_at) / RFU VPS37D (11726825_at) / Fold change /veh VPS37D (11726825_at) / RFU C10orf10 (11716522_x_at) / Fold change /veh C10orf10 (11716522_x_at) / RFU KIR2DL2 /// KIR2DL4 /// KIR2DL5A /// KIR2DL5B /// KIR2DS1 /// KIR2DS2 /// KIR2DS3 /// KIR2DS4 /// KIR3DL3 /// KIR3DL3 /// KIR3DS1 (11738374_at) / Fold change /veh KIR2DL2 /// KIR2DL4 /// KIR2DL5A /// KIR2DL5B /// KIR2DS1 /// KIR2DS2 /// KIR2DS3 /// KIR2DS4 /// KIR3DL3 /// KIR3DL3 /// KIR3DS1 (11738374_at) / RFU C1QL1 (11718748_at) / Fold change /veh C1QL1 (11718748_at) / RFU TMPRSS4 (11747572_a_at) / Fold change /veh TMPRSS4 (11747572_a_at) / RFU HAMP (11756126_x_at) / Fold change /veh HAMP (11756126_x_at) / RFU RNFT2 (11725882_a_at) / Fold change /veh RNFT2 (11725882_a_at) / RFU NR4A2 (11747474_a_at) / Fold change /veh NR4A2 (11747474_a_at) / RFU ABCC12 (11746883_a_at) / Fold change /veh ABCC12 (11746883_a_at) / RFU TMEM136 (11760407_x_at) / Fold change /veh TMEM136 (11760407_x_at) / RFU CLDN22 /// WWC2 (11732394_at) / Fold change /veh CLDN22 /// WWC2 (11732394_at) / RFU HLA-DPB1 (11760878_x_at) / Fold change /veh HLA-DPB1 (11760878_x_at) / RFU SPINT1 (11716480_a_at) / Fold change /veh SPINT1 (11716480_a_at) / RFU GAP43 (11754022_s_at) / Fold change /veh GAP43 (11754022_s_at) / RFU A4GNT (11735810_at) / Fold change /veh A4GNT (11735810_at) / RFU PRB3 (11715151_x_at) / Fold change /veh PRB3 (11715151_x_at) / RFU TUBB4B (11761932_at) / Fold change /veh TUBB4B (11761932_at) / RFU CAPN14 (11732068_a_at) / Fold change /veh CAPN14 (11732068_a_at) / RFU TMCC2 (11721928_a_at) / Fold change /veh TMCC2 (11721928_a_at) / RFU IRGQ (11745062_a_at) / Fold change /veh IRGQ (11745062_a_at) / RFU FAM174B (11720279_a_at) / Fold change /veh FAM174B (11720279_a_at) / RFU TMPRSS4 (11748680_a_at) / Fold change /veh TMPRSS4 (11748680_a_at) / RFU FAM212B (11763350_a_at) / Fold change /veh FAM212B (11763350_a_at) / RFU PLEKHG5 (11743358_a_at) / Fold change /veh PLEKHG5 (11743358_a_at) / RFU ZSCAN30 (11745921_a_at) / Fold change /veh ZSCAN30 (11745921_a_at) / RFU CMKLR1 (11741424_a_at) / Fold change /veh CMKLR1 (11741424_a_at) / RFU LOC101060620 /// MAPK8IP1 (11723275_at) / Fold change /veh LOC101060620 /// MAPK8IP1 (11723275_at) / RFU SPTSSB (11747773_x_at) / Fold change /veh SPTSSB (11747773_x_at) / RFU PRSS12 (11739890_at) / Fold change /veh PRSS12 (11739890_at) / RFU BIN1 (11741810_x_at) / Fold change /veh BIN1 (11741810_x_at) / RFU WNT11 (11732464_a_at) / Fold change /veh WNT11 (11732464_a_at) / RFU C10orf10 (11716521_a_at) / Fold change /veh C10orf10 (11716521_a_at) / RFU C5orf56 (11738089_at) / Fold change /veh C5orf56 (11738089_at) / RFU CYB561 (11721691_x_at) / Fold change /veh CYB561 (11721691_x_at) / RFU ANKRD19P (11752326_a_at) / Fold change /veh ANKRD19P (11752326_a_at) / RFU OR2T12 /// OR2T33 /// OR2T8 (11738714_s_at) / Fold change /veh OR2T12 /// OR2T33 /// OR2T8 (11738714_s_at) / RFU VCAN (11748164_a_at) / Fold change /veh VCAN (11748164_a_at) / RFU JSRP1 (11732532_at) / Fold change /veh JSRP1 (11732532_at) / RFU KRTAP10-11 (11738290_x_at) / Fold change /veh KRTAP10-11 (11738290_x_at) / RFU MYO3A (11730013_a_at) / Fold change /veh MYO3A (11730013_a_at) / RFU EBF3 (11725865_a_at) / Fold change /veh EBF3 (11725865_a_at) / RFU CAMK2N1 (11719241_x_at) / Fold change /veh CAMK2N1 (11719241_x_at) / RFU C5orf56 (11738088_a_at) / Fold change /veh C5orf56 (11738088_a_at) / RFU OLFML3 (11715873_a_at) / Fold change /veh OLFML3 (11715873_a_at) / RFU LOC100653217 /// NTM (11731650_a_at) / Fold change /veh LOC100653217 /// NTM (11731650_a_at) / RFU MAPK11 (11762145_a_at) / Fold change /veh MAPK11 (11762145_a_at) / RFU FIZ1 (11724087_x_at) / Fold change /veh FIZ1 (11724087_x_at) / RFU OASL (11726364_x_at) / Fold change /veh OASL (11726364_x_at) / RFU SOX15 (11748057_x_at) / Fold change /veh SOX15 (11748057_x_at) / RFU CD79A (11719716_a_at) / Fold change /veh CD79A (11719716_a_at) / RFU HIST1H1D (11736915_at) / Fold change /veh HIST1H1D (11736915_at) / RFU CASKIN2 (11723855_a_at) / Fold change /veh CASKIN2 (11723855_a_at) / RFU LOC730098 (11760151_x_at) / Fold change /veh LOC730098 (11760151_x_at) / RFU OR4N2 (11742367_at) / Fold change /veh OR4N2 (11742367_at) / RFU PRRT2 (11749266_a_at) / Fold change /veh PRRT2 (11749266_a_at) / RFU SNX32 (11753110_a_at) / Fold change /veh SNX32 (11753110_a_at) / RFU CDHR5 (11726645_a_at) / Fold change /veh CDHR5 (11726645_a_at) / RFU RCAN1 (11760418_a_at) / Fold change /veh RCAN1 (11760418_a_at) / RFU FAM167A (11723789_a_at) / Fold change /veh FAM167A (11723789_a_at) / RFU FAM26E (11764081_at) / Fold change /veh FAM26E (11764081_at) / RFU ISYNA1 (11749810_s_at) / Fold change /veh ISYNA1 (11749810_s_at) / RFU ACY1 (11761880_at) / Fold change /veh ACY1 (11761880_at) / RFU 11764098_at / Fold change /veh 11764098_at / RFU SAMD14 (11745864_x_at) / Fold change /veh SAMD14 (11745864_x_at) / RFU NPB (11741838_a_at) / Fold change /veh NPB (11741838_a_at) / RFU TMPRSS6 (11731388_a_at) / Fold change /veh TMPRSS6 (11731388_a_at) / RFU KRTAP10-2 (11738614_at) / Fold change /veh KRTAP10-2 (11738614_at) / RFU ARHGAP8 /// PRR5-ARHGAP8 (11727945_x_at) / Fold change /veh ARHGAP8 /// PRR5-ARHGAP8 (11727945_x_at) / RFU KRTAP5-7 /// NADSYN1 (11734609_at) / Fold change /veh KRTAP5-7 /// NADSYN1 (11734609_at) / RFU RASL12 (11751679_a_at) / Fold change /veh RASL12 (11751679_a_at) / RFU CDKN2B (11736163_a_at) / Fold change /veh CDKN2B (11736163_a_at) / RFU PRF1 (11729649_at) / Fold change /veh PRF1 (11729649_at) / RFU, ZNF638 /// ZNF638-IT1 / Fold change vs veh, ZNF638 /// ZNF638-IT1 / RFU, PANK3 / Fold change vs veh, PANK3 / RFU, SH3YL1 / Fold change vs veh, SH3YL1 / RFU, ZEB2 / Fold change vs veh, ZEB2 / RFU, NRIP1 / Fold change vs veh, NRIP1 / RFU, PTTG1IP / Fold change vs veh, PTTG1IP / RFU, CAPN2 / Fold change vs veh, CAPN2 / RFU, MED14 / Fold change vs veh, MED14 / RFU, SNORA58 / Fold change vs veh, SNORA58 / RFU, C1orf63 / Fold change vs veh, C1orf63 / RFU, LRRFIP1 / Fold change vs veh, LRRFIP1 / RFU, NDUFAF7 / Fold change vs veh, NDUFAF7 / RFU, SLC12A2 / Fold change vs veh, SLC12A2 / RFU, IBTK / Fold change vs veh, IBTK / RFU, ESF1 / Fold change vs veh, ESF1 / Fold change vs veh, TMEM50B / RFU, TAOK1 / Fold change vs veh, TAOK1 / RFU, ACBD3 / Fold change vs veh, ACBD3 / RFU, TMA16 / Fold change vs veh, TMA16 / RFU, RWDD3 / Fold change vs veh, RWDD3 / RFU, BCAT1 / Fold change vs veh, BCAT1 / RFU, EDEM3 / Fold change vs veh, EDEM3 / RFU, TMEM33 / Fold change vs veh, TMEM33 / RFU, WDR75 / Fold change vs veh, WDR75 / RFU, AHCTF1 / Fold change vs veh, AHCTF1 / RFU, TFRC / Fold change vs veh, TFRC / RFU, ZDHHC17 / Fold change vs veh, ZDHHC17 / RFU, NOM1 / Fold change vs veh, NOM1 / RFU, ARL8B / Fold change vs veh, ARL8B / RFU, ZBTB11 / Fold change vs veh, ZBTB11 / RFU, TAMM41 / Fold change vs veh, TAMM41 / RFU, KIAA1704 /// LOC100996395 / Fold change vs veh, KIAA1704 /// LOC100996395 / RFU, ING1 / Fold change vs veh, ING1 / RFU, TRMT61B / Fold change vs veh, TRMT61B / RFU, FUBP3 / Fold change vs veh, FUBP3 / RFU, TP53 / Fold change vs veh, TP53 / RFU, TNKS2 / Fold change vs veh, TNKS2 / RFU, ZFP14 / Fold change vs veh, ZFP14 / RFU, ACTR2 / Fold change vs veh, ACTR2 / RFU, PPP3R1 / Fold change vs veh, PPP3R1 / RFU, PIK3R1 / Fold change vs veh, PIK3R1 / RFU, HNRNPA1 / Fold change vs veh, HNRNPA1 / RFU, RNF170 / Fold change vs veh, RNF170 / RFU, ZNF28 / Fold change vs veh, ZNF28 / RFU, RNGTT / Fold change vs veh, RNGTT / RFU, OGT / Fold change vs veh, OGT / RFU, BRD1 / Fold change vs veh, BRD1 / RFU, MARS / Fold change vs veh, MARS / RFU, ZNF655 / Fold change vs veh, ZNF655 / RFU, FAHD1 / Fold change vs veh, FAHD1 / RFU, BDP1 / Fold change vs veh, BDP1 / RFU, LRRCC1 / Fold change vs veh, LRRCC1 / RFU, ARID1A / Fold change vs veh, ARID1A / RFU, ZNF146 / Fold change vs veh, ZNF146 / RFU, ZNF330 / Fold change vs veh, ZNF330 / RFU, GPN3 / Fold change vs veh, GPN3 / RFU, C9orf123 / Fold change vs veh, C9orf123 / RFU, N4BP2L2 / Fold change vs veh, N4BP2L2 / RFU, ARFIP1 / Fold change vs veh, ARFIP1 / RFU, FAM179B / Fold change vs veh, FAM179B / RFU, BCL10 / Fold change vs veh, BCL10 / RFU, UHRF1BP1L / Fold change vs veh, UHRF1BP1L / RFU, BET1 / Fold change vs veh, BET1 / RFU, CNOT2 / Fold change vs veh, CNOT2 / RFU, ZNF268 / Fold change vs veh, ZNF268 / Fold change vs veh, ZNF507 / RFU, DGCR2 / Fold change vs veh, DGCR2 / RFU, WDSUB1 / Fold change vs veh, WDSUB1 / Fold change vs veh, HSP90B1 /// MIR3652 / RFU, ADSS / Fold change vs veh, ADSS / RFU, GK / Fold change vs veh, GK / RFU, ZNF148 / Fold change vs veh, ZNF148 / RFU, TAF9 / Fold change vs veh, TAF9 / RFU, SLC1A5 / Fold change vs veh, SLC1A5 / RFU, SLMO2 / Fold change vs veh, SLMO2 / RFU, ABCC4 / Fold change vs veh, ABCC4 / RFU, LOC101060439 /// RAP1B / Fold change vs veh, LOC101060439 /// RAP1B / RFU, RFX7 / Fold change vs veh, RFX7 / RFU, GTPBP10 / Fold change vs veh, GTPBP10 / RFU, CNEP1R1 / Fold change vs veh, CNEP1R1 / RFU, BIVM-ERCC5 /// ERCC5 / Fold change vs veh, BIVM-ERCC5 /// ERCC5 / RFU, ILF3 / Fold change vs veh, ILF3 / RFU 11762660_at / Fold change /veh 11762660_at / RFU VCAN (11757783_s_at) / Fold change /veh VCAN (11757783_s_at) / RFU DDX43 (11728927_at) / Fold change /veh DDX43 (11728927_at) / RFU KRT8 (11758188_x_at) / Fold change /veh KRT8 (11758188_x_at) / RFU NKD1 (11759106_at) / Fold change /veh NKD1 (11759106_at) / RFU SRD5A1 (11742802_a_at) / Fold change /veh SRD5A1 (11742802_a_at) / RFU TPSAB1 /// TPSB2 (11721975_s_at) / Fold change /veh TPSAB1 /// TPSB2 (11721975_s_at) / RFU GSTM3 (11746129_a_at) / Fold change /veh GSTM3 (11746129_a_at) / RFU IL23R (11737362_x_at) / Fold change /veh IL23R (11737362_x_at) / RFU TMEM51 (11727254_a_at) / Fold change /veh TMEM51 (11727254_a_at) / RFU PIWIL2 (11732686_x_at) / Fold change /veh PIWIL2 (11732686_x_at) / RFU ORM1 (11744905_x_at) / Fold change /veh ORM1 (11744905_x_at) / RFU CCDC152 (11743942_at) / Fold change /veh CCDC152 (11743942_at) / RFU ECM1 (11717891_a_at) / Fold change /veh ECM1 (11717891_a_at) / RFU IL23R (11748794_a_at) / Fold change /veh IL23R (11748794_a_at) / RFU TNFAIP8L3 (11732012_x_at) / Fold change /veh TNFAIP8L3 (11732012_x_at) / RFU MBOAT4 (11741988_at) / Fold change /veh MBOAT4 (11741988_at) / RFU 11764193_at / Fold change /veh 11764193_at / RFU TMEM53 (11763286_at) / Fold change /veh TMEM53 (11763286_at) / RFU MAGEB2 (11727129_at) / Fold change /veh MAGEB2 (11727129_at) / RFU TMEM200A (11744735_a_at) / Fold change /veh TMEM200A (11744735_a_at) / RFU CCDC152 (11751479_a_at) / Fold change /veh CCDC152 (11751479_a_at) / RFU FAM211A (11726209_a_at) / Fold change /veh FAM211A (11726209_a_at) / RFU RGS16 (11746705_a_at) / Fold change /veh RGS16 (11746705_a_at) / RFU VCAN (11755009_s_at) / Fold change /veh VCAN (11755009_s_at) / RFU RHOB (11743442_s_at) / Fold change /veh RHOB (11743442_s_at) / RFU RGS16 (11720943_a_at) / Fold change /veh RGS16 (11720943_a_at) / RFU RGS16 (11720944_at) / Fold change /veh RGS16 (11720944_at) / RFU, VPS4B / Fold change vs veh, VPS4B / RFU, CREB1 / Fold change vs veh, CREB1 / RFU, DNAJC13 / Fold change vs veh, DNAJC13 / RFU, GNAQ / Fold change vs veh, GNAQ / RFU, CDK5R1 / Fold change vs veh, CDK5R1 / RFU, ZRANB3 / Fold change vs veh, ZRANB3 / RFU, CUL4A / Fold change vs veh, CUL4A / RFU, CCNY / Fold change vs veh, CCNY / RFU, UFL1 / Fold change vs veh, UFL1 / RFU, COG3 / Fold change vs veh, COG3 / RFU, DIAPH2 / Fold change vs veh, DIAPH2 / RFU, SKA2 / Fold change vs veh, SKA2 / RFU, AFF3 / Fold change vs veh, AFF3 / RFU, LMF1 / Fold change vs veh, LMF1 / RFU, IPO11 / Fold change vs veh, IPO11 / RFU, DFFB / Fold change vs veh, DFFB / RFU, FOXP1 / Fold change vs veh, FOXP1 / RFU, CARD8 / Fold change vs veh, CARD8 / RFU, STRN3 / Fold change vs veh, STRN3 / RFU, ADK / Fold change vs veh, ADK / RFU, RASSF2 / Fold change vs veh, RASSF2 / RFU, WIPF1 / Fold change vs veh, WIPF1 / RFU, LARP1B / Fold change vs veh, LARP1B / RFU, RASA1 / Fold change vs veh, RASA1 / RFU, RB1 / Fold change vs veh, RB1 / RFU, PPFIA1 / Fold change vs veh, PPFIA1 / RFU, MAT2A / Fold change vs veh, MAT2A / RFU, CCT5 / Fold change vs veh, CCT5 / RFU, WDR92 / Fold change vs veh, WDR92 / RFU, CUX1 / Fold change vs veh, CUX1 / RFU, TTC7A / Fold change vs veh, TTC7A / RFU, TMEM135 / Fold change vs veh, TMEM135 / RFU, DEPTOR / Fold change vs veh, DEPTOR / RFU, CPM / Fold change vs veh, CPM / RFU, DNAJB6 / Fold change vs veh, DNAJB6 / RFU, CACNA2D3 / Fold change vs veh, CACNA2D3 / RFU, DTX4 / Fold change vs veh, DTX4 / RFU, TFCP2 / Fold change vs veh, TFCP2 / RFU, GMCL1 /// GMCL1P1 / Fold change vs veh, GMCL1 /// GMCL1P1 / RFU, AEBP2 / Fold change vs veh, AEBP2 / RFU, SNHG1 /// SNORD22 /// SNORD25 /// SNORD26 /// SNORD27 /// SNORD28 /// SNORD29 /// SNORD31 / Fold change vs veh, SNHG1 /// SNORD22 /// SNORD25 /// SNORD26 /// SNORD27 /// SNORD28 /// SNORD29 /// SNORD31 / Fold change (Aza/veh), C12orf56 (ProbeSet 11735607_a_at) / Fold change (ACY-1035/veh), C12orf56 (ProbeSet 11735607_a_at) / Fold change (Aza/veh), FGFR1OP (ProbeSet 11751329_s_at) / Fold change (ACY-1035/veh), FGFR1OP (ProbeSet 11751329_s_at) / Fold change (Aza/veh), VPS36 (ProbeSet 11739960_a_at) / Fold change (ACY-1035/veh), VPS36 (ProbeSet 11739960_a_at) / RFU SYPL1 (11715823_x_at) / Fold change /veh SYPL1 (11715823_x_at) / RFU IGFBP7 (11715501_s_at) / Fold change /veh IGFBP7 (11715501_s_at) / RFU REEP3 (11722064_at) / Fold change /veh REEP3 (11722064_at) / RFU IGLL1 (11728026_x_at) / Fold change /veh IGLL1 (11728026_x_at): dose or concentration left out as unconfirmed",
  "conditions": "MV-4-11 cells, 48 hours",
  "data": [
    {"smiles": "Nc1ccc(-c2cccs2)cc1NC(=O)c1ccc2c(c1)cc(C1CC1)n2CCN1CCOCC1", "note": "[ACY-1035]", "values": [
      {"measurement": "Fold change /veh CYB561 (11721691_x_at)", "result": 0.97}
    ]}
  ]
}
